According to patent US8642094B2, “Synergistic pharmaceutical composition, method of making same and use of same” (Afexa Life Sciences Inc., priority 2008, dated 2014):

Legend:
[1] = system: secretion of apo-B from HepG2 cells; assay: Apo-B secretion from HepG2 cells; format: cell-based, human; details: for nature of interaction with ethanol extract of HL: non-linear blending curves, combined total doses 30-250 ug/ml, FIGS. 9-11, 14-35; for nature of interaction with berberine (BBR): non-linear blending, combined total dose 50 ug/ml, FIGS. 36-40
Procedure: In the Examples to follow, Apo-B secretion experiments were carried out on HepG2 cells. These cells were obtained from the American Type Culture Collection (cat #: ATCC HB-8065). HepG2, a human hepatoblastoma-derived cell line, is one of the most commonly used models to study lipoprotein uptake and metabolism in intact human liver. These cells secrete most of the plasma proteins secreted from human liver cells including apolipoprotein-B [38]. In addition, most of the enzymes involved in intra- and extracellular cholesterol metabolism including LCAT, ACAT, HMG-CoA reductase and Cholesterol 7-α-hydroxylase are expressed in these cells.
The effects of HL, KDC and hawthorn extracts, when used in isolation as well as in combination, on the secretion of apo-B from human hepatoma cells, Hep-G2 was determined. Water extracts of Coptis chinesis (Huanglian) and Ku Ding Cha (Ilex kudingcha) were developed and tested; results are indicated in FIGS. 1 and 2, respectively. Ethanolic extracts of Coptis chinesis (Huanglian) and ethyl acetate extracts of Ku Ding Cha (Ilex kudingcha) were also developed and hawthorn extract was used for these experiments shown in FIGS. 3-12.
Additional experiments were subsequently carried out to confirm the synergism between the HL and KDC extracts. Three commonly used approaches including non-linear blending, isobologram and combination index were utilized to determine this interaction.
Determination of a drugs combination index (CI) provides quantitative information of the nature of drug interaction. It is calculated through the following equation: CI=(CA,X/ICX,A)+(CB,X/ICX,B) CA,X and CB,X, are the concentrations of drug A and drug B used in the combination to achieve x % drug effect. ICX,A and ICX,B are the concentrations for single agents to achieve the same effect. A CI of less than, equal to, and more than 1 indicates synergy, additivity, and antagonism, respectively.

[2] = molecular target: acyl-CoA: cholesterol acyltransferase (ACAT); details: cited from earlier work
[3] = molecular target: nucleoside triphosphate hydrolase (NTPase); details: cited from earlier work
[4] = 1 g/day for 3 months; cited from earlier work
[5] = oral, 100 mg/day for 2 weeks; cited from earlier work
LDL receptors = details: Hep G2 cells; cited from earlier work
Hep G2 cells = details: cited from earlier work
3T3-L1 adipocytes = details: cited from earlier work
L929 cells = details: cited from earlier work
CYP2D6 = molecular target: T1, CYP2D6 (Homo sapiens, UniProt P10635); details: human liver microsomes, 20 μM; cited from earlier work
T1 construct: incubation of human liver microsomes with BBR; from tissue; host or cells: human liver microsomes
T1 sequence (P10635 whole entry): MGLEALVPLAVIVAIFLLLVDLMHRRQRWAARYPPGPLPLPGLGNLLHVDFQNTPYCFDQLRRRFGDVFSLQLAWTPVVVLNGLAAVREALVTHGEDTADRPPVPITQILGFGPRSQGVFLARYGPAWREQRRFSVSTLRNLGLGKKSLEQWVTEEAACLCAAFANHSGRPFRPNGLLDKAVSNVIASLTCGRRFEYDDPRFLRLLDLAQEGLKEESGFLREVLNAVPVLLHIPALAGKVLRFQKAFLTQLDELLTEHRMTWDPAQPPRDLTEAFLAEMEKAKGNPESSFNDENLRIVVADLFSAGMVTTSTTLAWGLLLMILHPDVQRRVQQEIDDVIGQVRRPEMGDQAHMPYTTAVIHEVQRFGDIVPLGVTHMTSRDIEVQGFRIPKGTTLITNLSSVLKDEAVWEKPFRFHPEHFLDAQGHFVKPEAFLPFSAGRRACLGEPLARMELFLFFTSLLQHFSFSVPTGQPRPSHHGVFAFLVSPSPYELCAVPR

CYP3A4 = molecular target: T2, CYP3A4 (Homo sapiens, UniProt P08684); details: human liver microsomes, 20 μM; cited from earlier work
T2 construct: incubation of human liver microsomes with BBR; from tissue; host or cells: human liver microsomes
T2 sequence (P08684 whole entry): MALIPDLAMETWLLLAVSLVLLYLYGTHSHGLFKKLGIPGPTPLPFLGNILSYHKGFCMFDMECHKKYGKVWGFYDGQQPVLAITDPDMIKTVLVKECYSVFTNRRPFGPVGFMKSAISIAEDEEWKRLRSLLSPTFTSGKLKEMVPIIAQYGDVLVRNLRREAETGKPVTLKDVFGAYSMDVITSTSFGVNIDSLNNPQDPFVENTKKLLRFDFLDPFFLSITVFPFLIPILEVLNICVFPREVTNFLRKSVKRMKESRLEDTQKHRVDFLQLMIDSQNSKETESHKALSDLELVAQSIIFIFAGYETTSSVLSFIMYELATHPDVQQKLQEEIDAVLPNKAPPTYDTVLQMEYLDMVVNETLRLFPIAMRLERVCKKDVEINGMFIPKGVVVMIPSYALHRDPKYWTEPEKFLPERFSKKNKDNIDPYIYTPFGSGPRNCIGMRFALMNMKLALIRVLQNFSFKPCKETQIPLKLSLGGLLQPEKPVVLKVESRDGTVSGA

CYP2E1 = molecular target: T3, CYP2E1 (Homo sapiens, UniProt P05181); details: human liver microsomes, 20 μM; cited from earlier work
T3 construct: incubation of human liver microsomes with BBR; from tissue; host or cells: human liver microsomes
T3 sequence (P05181 whole entry): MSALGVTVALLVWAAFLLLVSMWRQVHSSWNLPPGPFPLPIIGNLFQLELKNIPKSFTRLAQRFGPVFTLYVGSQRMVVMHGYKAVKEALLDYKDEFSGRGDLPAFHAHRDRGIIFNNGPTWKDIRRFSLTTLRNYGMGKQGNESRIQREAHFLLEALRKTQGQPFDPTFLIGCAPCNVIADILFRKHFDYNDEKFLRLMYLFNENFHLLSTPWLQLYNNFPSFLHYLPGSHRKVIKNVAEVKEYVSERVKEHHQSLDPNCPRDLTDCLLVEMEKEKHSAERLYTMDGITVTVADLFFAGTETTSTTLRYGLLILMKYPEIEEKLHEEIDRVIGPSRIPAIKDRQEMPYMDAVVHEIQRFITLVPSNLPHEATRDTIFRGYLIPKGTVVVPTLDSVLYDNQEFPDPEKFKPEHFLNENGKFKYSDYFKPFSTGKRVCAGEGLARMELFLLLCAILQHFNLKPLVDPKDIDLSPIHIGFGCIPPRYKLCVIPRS

mice = details: mouse, in vivo; cited from earlier work
squalene synthase = molecular target: T4, squalene synthase (Homo sapiens, UniProt P37268); details: cited from earlier work
T4 sequence (P37268 1-417): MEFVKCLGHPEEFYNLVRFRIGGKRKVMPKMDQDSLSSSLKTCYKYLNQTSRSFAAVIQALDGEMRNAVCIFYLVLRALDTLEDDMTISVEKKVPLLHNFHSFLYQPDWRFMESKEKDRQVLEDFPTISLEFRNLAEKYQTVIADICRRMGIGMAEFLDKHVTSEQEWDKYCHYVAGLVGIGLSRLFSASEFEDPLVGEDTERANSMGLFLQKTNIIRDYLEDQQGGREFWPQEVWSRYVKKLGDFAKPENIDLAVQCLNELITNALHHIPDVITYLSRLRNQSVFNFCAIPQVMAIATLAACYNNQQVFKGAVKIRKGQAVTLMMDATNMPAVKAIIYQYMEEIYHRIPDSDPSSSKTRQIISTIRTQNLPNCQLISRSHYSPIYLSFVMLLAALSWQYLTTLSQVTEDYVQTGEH

In the case of `C[C@H]1[C@H](C)CC[C@]2(C(=O)O)CC[C@]3(C)C(=CC[C@@H]4[C@@]5(C)CC[C@H](O)C(C)(C)[C@@H]5CC[C@]43C)[C@H]12` [ursolic acid, 3β-Hydroxy-12-ursen-28-ic acid], the “nature of interaction with ethanol extract of HL” value (shortened to “nature of interaction … of HL”) [1] is listed as “interacting with HL”, the “nature of interaction with berberine (BBR)” value (“nature of interaction … (BBR)” for short) [1] is listed as “synergism” and the IC50 [2] is listed as 58.8 µM. For the same compound, the IC50 [3] was 0.6 µM.

For `C=C(C)[C@@H]1CC[C@]2(CO)CC[C@]3(C)[C@H](CC[C@@H]4[C@@]5(C)CC[C@H](O)C(C)(C)[C@@H]5CC[C@]43C)[C@@H]12` [betulin, lup-20[29]-ene-3β,28-diol], the “nature of interaction … of HL” value [1] is given as “interacting with HL”, the “nature of interaction … (BBR)” value [1] is given as “synergism” and the IC50 [2] is given as 83 µM.

For `COc1ccc2cc3[n+](cc2c1OC)CCc1cc2c(cc1-3)OCO2` [berberine], the “reduction of LDL-cholesterol” value [4] is listed as 25%, the “reduction of serum cholesterol concentrations” value [4] is listed as 29% and the reduction of triglycerides [4] is listed as 35%. For the same compound, the “reduction of serum LDL-cholesterol levels” value [5] was “up to 30%”, the “reduction of serum total cholesterol levels” value [5] was “up to 30%” and the “expression of LDL receptors” value (LDL receptors) was “increases the expression of LDL receptors”. For the same compound, the “synthesis of cholesterol and triglyceride in the cells” value (Hep G2 cells) was “inhibit the synthesis of cholesterol and triglyceride”, the “differentiation of 3T3-L1 adipocytes” value (3T3-L1 adipocytes) was “inhibit differentiation” and the dose inducing cytotoxicity (L929 cells) was “greater than 40 μg/ml”. For the same compound, the CYP2D6 activity (CYP2D6) was “decrease the activities”, the CYP3A4 activity (CYP3A4) was “decrease the activities” and the CYP2E1 activity (CYP2E1) was “decrease the activities”. The lethal dose (mice) was “exceeding 15 mg/Kg”.

In the case of `C=C(C)[C@@H]1CC[C@]2(C)CC[C@]3(C)[C@H](CC[C@@H]4[C@@]5(C)CC[C@H](O)C(C)(C)[C@@H]5CC[C@]43C)[C@@H]12` [Lupeol, 3β-Hydroxy-20(29)-lupene], the “nature of interaction … of HL” value [1] is given as “interacting with HL”, the “nature of interaction … (BBR)” value [1] is given as “synergism” and the IC50 [2] is given as 48 µM.

For `O=C(/C=C/c1ccc(O)c(O)c1)O[C@@H]1C[C@](O)(C(=O)O)C[C@@H](O)[C@H]1O` [Chlorogenic acid], the “nature of interaction … of HL” value [1] is listed as “synergism”, the “nature of interaction … (BBR)” value [1] is listed as “synergism” and the IC50 (squalene synthase) is listed as 0.1 µM.

In the case of Lipedoside B-III, the IC50 [2] is listed as 269 µM.

With `COc1cc2c(cc1OC)-c1cc3ccc(OC)c(OC)c3c[n+]1CC2` [Palmitine chloride, palmitine chloride] the “nature of interaction … (BBR)” value [1] was “interact synergistically”.
